25 compounds from PubChem BioAssay (NCI) can be followed below.

Holding throughout (assay): DTP human tumour cell line panel, 48 h
For experiment [1], the system named is MOLT-4 leukemia.
For experiment [2], the system named is RXF 393 renal.
Experiment [3] has as its system MDA-MB-435.
For experiment [4], the system named is HCT-15 colon.
Experiment [5] concerns OVCAR-4 ovarian.
In experiment [6] the test system is COLO 205 colon.
The subject of experiment [7] is ACHN renal.
Experiment [8] deals with A549 NSCLC.
Experiment [9] relates to MDA-MB-231 breast.
Experiment [10] has as its system NCI-H522 lung.

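Compound exposure: 48 hours, 5 concentrations, 96-well plates. At the GI50, growth is halved. TGI: total growth inhibition.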

In the case of `CC1(C)[C@@H]2C[C@H]1C(Cc1cccc(C[C@H]3c4cc(-c5ccccn5)ncc4[C@H]4C[C@@H]3C4(C)C)c1)c1cc(-c3ccccn3)ncc12` (some centres not stated), the TGI is 1.91 µM in experiment [1]; greater than 100 µM in experiment [2]; greater than 58.5 µM in experiment [3]; greater than 53 µM in experiment [4]; greater than 100 µM in experiment [5]; greater than 58.6 µM in [6]. The TGI in experiment [7] is greater than 100 µM; in experiment [8], greater than 100 µM; in [9], greater than 100 µM; in experiment [10], greater than 56.7 µM. Further, the GI50 in experiment [7] was 0.605 µM.
`O=C(Nc1cccc(-n2ccc3c(NC(=O)c4ccccc4)nccc32)c1)c1cc(N2CCOCC2)cc(C(F)(F)F)c1`: the GI50 is 0.907 µM in experiment [1]; 0.0325 µM in experiment [2]; 0.0253 µM in experiment [3]; 0.0395 µM in experiment [4]; 0.175 µM in experiment [5]; 0.157 µM in experiment [6]. For the same compound, the GI50 in experiment [7] was 0.116 µM; in experiment [8] it was 0.142 µM; in [9] it was 0.245 µM; in experiment [10], 0.0269 µM. The TGI was greater than 100 µM in [1]; 0.159 µM in [2]; 0.0688 µM in [3]; greater than 100 µM in experiment [5]; 0.472 µM in experiment [6]; 0.651 µM in experiment [9].
With `CCOC(=O)N(C)C1(c2ccccc2)CCN(CCCC(=O)c2ccc(F)cc2)CC1`, the TGI in [1] is greater than 100 µM; in experiment [2], greater than 100 µM; in [3], 53.6 µM; in [4] it was greater than 100 µM; in experiment [5] it was greater than 100 µM; in experiment [6] it was 29.7 µM. The TGI in experiment [7], in [8], in [9] and in experiment [10] was greater than 100 µM each time.
For `c1ccc(C2=C(c3ccccc3)P(c3ccccc3)C2)cc1` (configuration not stated), the TGI in [1], in experiment [2], in [3], in experiment [4], in experiment [5] and in experiment [6] was greater than 100 µM each time. For the same compound, the TGI in experiment [7], in experiment [8], in [9] and in experiment [10] was greater than 100 µM in each case.
Consider `O=C1C(N=Nc2ccc(-c3nc4ccccc4[nH]3)cc2)NC(=S)N1c1ccccc1` (configuration not stated), for which the TGI in [1] is 48.8 µM; in experiment [2], 47.3 µM; in experiment [3], greater than 100 µM; in experiment [4], 43.8 µM; in [5], greater than 100 µM; in experiment [6] it was greater than 100 µM. The TGI in experiment [7], in [8], in [9] and in experiment [10] was greater than 100 µM throughout.
For the compound `CN(C)CCOC1(CC2CCCCC2)CCC(C(C)(C)C)CC1` (configuration not stated), the TGI was 7.67 µM in experiment [1]; 8.96 µM in experiment [2]; 13.8 µM in experiment [3]; 13.4 µM in [4]; 19.8 µM in experiment [5]; 6.13 µM in [6]. Besides, the TGI was 20 µM in experiment [7], 17.6 µM in experiment [8], 13.5 µM in experiment [9] and 8.49 µM in experiment [10].
For `O=[N+]([O-])c1ccc(Cl)cc1C=NC12CC3CC(CC(C3)C1)C2`, the TGI in experiment [1] was 63.4 µM; in experiment [2], 97.6 µM; in experiment [3], greater than 100 µM; in experiment [4], greater than 100 µM; in experiment [5], greater than 100 µM; in [6] it was 97.5 µM. The TGI in experiment [7], in experiment [8], in experiment [9] and in [10] was greater than 100 µM throughout.
For `N#Cc1nc(/C=C/c2ccccc2)oc1N`, the TGI in experiment [1], in [2], in experiment [3], in experiment [4], in experiment [5] and in experiment [6] was greater than 100 µM each time. Moreover, the TGI in [7], in experiment [8], in [9] and in [10] was greater than 100 µM each time.
For the compound `OCCO[P+]1(OCCO)n2c3ccc2C(c2ccccc2)=C2C=CC(=N2)C(c2ccccc2)=c2ccc(n21)=C(c1ccccc1)C1=NC(=C3c2ccccc2)C=C1`, the TGI was 0.701 µM in experiment [1]; 0.563 µM in [2]; 0.132 µM in [3]; 3.59 µM in experiment [4]; 2.17 µM in [5]; 0.0651 µM in [6]. The TGI in [7] was 1.1 µM; in experiment [8], 1.93 µM; in experiment [9], 0.275 µM; in experiment [10], 0.2 µM.
Consider `CC(=N\N=C\c1ccccn1)/C(C)=N/N=C(C)/C(C)=N/N=C(C)/C(C)=N/N=C/c1ccccn1`, for which the TGI in [1], in experiment [2], in [3], in experiment [4], in [5] and in experiment [6] was greater than 100 µM each time. Moreover, the TGI in experiment [7], in experiment [8], in [9] and in experiment [10] was greater than 100 µM throughout.
Regarding `CC(C)(C)OC(=O)NCC(=O)N1CCCN(C(=O)CNC(=O)OC(C)(C)C)CC1`, the TGI in [1], in experiment [2], in experiment [3], in [4], in [5] and in experiment [6] was greater than 100 µM throughout. Moreover, the TGI in experiment [7], in [8], in experiment [9] and in [10] was greater than 100 µM in each case.
In the case of `NCCCCNC1(c2cc3ccccc3s2)CCCCC1`, the TGI in [1] came to 8.37 µM; in experiment [2], 14.9 µM; in experiment [3], 3.49 µM; in [4], 17.7 µM; in experiment [5], 20.5 µM; in experiment [6] it was 3.5 µM. Besides, the TGI in [7] stood at 23.2 µM; in [8], 20.5 µM; in [9], 11.4 µM; in [10] it was 6.19 µM.
As to `C/C(N=Nc1nc2ccccc2o1)=C1/C=CC=CN1O`, the TGI in experiment [1] was 6.3 µM; in [2], greater than 100 µM; in experiment [3] it was greater than 100 µM; in [4] it was greater than 100 µM; in experiment [5], greater than 100 µM; in [6], greater than 100 µM. For the same compound, the TGI in experiment [7] is greater than 100 µM; in [8], greater than 100 µM; in experiment [9] it was greater than 100 µM; in [10], 26.7 µM.
`COc1ccc2c(c1)-c1nn(CCN(C)C)c3ccc(C(=O)NCCCN(C)CCCNC(=O)c4ccc5c6c(nn5CCN(C)C)-c5cc(OC)ccc5Nc46)c(c13)N2`: the TGI in [1] was 0.0653 µM; in [2], 0.499 µM; in [3] it was 0.262 µM; in experiment [4] it was 10.9 µM; in experiment [5] it was 0.827 µM; in experiment [6], 0.224 µM. Also, the TGI in [7] turned out to be 7.28 µM; in [8], 1.17 µM; in [9] it was 0.689 µM; in experiment [10], 0.273 µM.
As for `COc1ccc(/C=C2\CN(C)Cc3c2[nH]c(=O)c(C#N)c3-c2ccc(OC)cc2)cc1`, the TGI in [1] is greater than 100 µM; in experiment [2] it was 63.3 µM; in [3] it was greater than 100 µM; in [4], greater than 100 µM; in experiment [5] it was greater than 100 µM; in experiment [6], greater than 100 µM. For the same compound, the TGI in [7], in experiment [8], in experiment [9] and in experiment [10] was greater than 100 µM each time.
In the case of `O=c1[nH]c2ccccc2c2oc(-c3ccccc3)nc12`, the TGI in experiment [1] is 87.8 µM; in experiment [2], 44 µM; in [3] it was 38 µM; in experiment [4], greater than 100 µM; in experiment [5], greater than 100 µM; in [6] it was 37.6 µM. The TGI is greater than 100 µM in experiment [7], greater than 100 µM in experiment [8], 38.1 µM in [9] and greater than 100 µM in [10].
Turning to `C/C=C\C(CC(=O)NCCC1CN(C(=O)c2ccccc2)c2ccccc21)CC(=O)OC` (configuration not stated), the TGI in experiment [1], in experiment [2], in experiment [3], in [4], in experiment [5] and in experiment [6] was greater than 100 µM each time. Moreover, the TGI in experiment [7], in experiment [8], in experiment [9] and in [10] was greater than 100 µM throughout.
Take `CC(C)(NC1=NCCO1)c1ccccc1`: the TGI in [1], in [2], in experiment [3], in experiment [4], in [5] and in experiment [6] was greater than 100 µM in each case. The TGI in experiment [7], in experiment [8], in [9] and in experiment [10] was greater than 100 µM throughout.
Consider `CS(=O)(=O)O.[Ag]`, for which the TGI is 5.3 µM in [1]; 42 µM in experiment [2]; 9.78 µM in experiment [3]; 36.5 µM in experiment [4]; 9.43 µM in experiment [5]; 4.84 µM in experiment [6]. The TGI in experiment [7] is 16.8 µM; in experiment [8] it was 33.8 µM; in [9], 41 µM; in [10] it was 4.52 µM.
For the compound `CCOC(=O)C(C)c1nc2cc(N3CCN(C)CC3)c(F)cc2[nH]c1=O` (configuration not stated), the TGI in [1], in experiment [2], in experiment [3], in [4], in experiment [5] and in experiment [6] was greater than 100 µM each time. Besides, the TGI in [7], in [8], in [9] and in experiment [10] was greater than 100 µM in each case.
For the compound `O=C(OCc1ccccc1)N1c2cc([N+](=O)[O-])ccc2C(=O)N2CCC[C@H]2C1O` (some centres not stated), the TGI in experiment [1], in experiment [2], in experiment [3], in experiment [4], in experiment [5] and in [6] was greater than 100 µM in each case. Besides, the TGI in experiment [7], in experiment [8], in experiment [9] and in experiment [10] was greater than 100 µM in each case.
Turning to `Nc1nc2cc(CNc3ccc(C(=O)NC(CCC(=O)O)C(=O)O)cc3)ccc2nc1-c1ccccc1` (configuration not stated), the TGI in experiment [1], in experiment [2], in [3], in experiment [4], in [5] and in experiment [6] was greater than 10 µM throughout. The TGI in experiment [7], in [8], in experiment [9] and in experiment [10] was greater than 10 µM throughout.
Turning to `C#CCOC(=O)C(N)CCCN=C(N)N` (configuration not stated), the TGI in experiment [1], in experiment [2], in experiment [3], in experiment [4], in experiment [5] and in experiment [6] was greater than 100 µM throughout. For the same compound, the TGI in experiment [7], in [8], in experiment [9] and in [10] was greater than 100 µM throughout.
For `Cc1c(F)c(N)c2c(=O)cc(-c3ccc(NC(=O)C(N)CCCN=C(N)N)c(F)c3)oc2c1F` (configuration not stated), the TGI was greater than 100 µM in experiment [1]; 59.3 µM in experiment [2]; greater than 83.6 µM in experiment [3]; greater than 100 µM in experiment [4]; 40.7 µM in [5]; greater than 100 µM in experiment [6]. In addition, the TGI was 48.5 µM in [7], greater than 100 µM in experiment [8], greater than 59.6 µM in experiment [9] and 97.7 µM in experiment [10].
`COc1ccc(/C=N/n2c(Cc3ccc(Cl)cc3)n[nH]c2=O)c(OC)c1`: the TGI in experiment [1] is greater than 100 µM; in experiment [2], 41.7 µM; in experiment [3], greater than 100 µM; in [4] it was greater than 100 µM; in [5], 41.6 µM; in [6] it was greater than 100 µM. Also, the TGI in experiment [7] was greater than 100 µM; in experiment [8] it was greater than 100 µM; in [9], greater than 100 µM; in [10], 37.4 µM.
